This is an account of results in EP4745118A1, “HYDROXAMIC ACID COMPOUND OR PHARMACEUTICALLY ACCEPTABLE SALT THEREOF, AND USE THEREOF AND PREPARATION METHOD THEREFOR” (priority 2023, dated 2025).

Molecules are shown by their SMILES. Converted amounts (≈) assume the structure as drawn.

For one assay, the system named is Shigella flexneri. In words: In vitro antibacterial activity, agar dilution method (MIC). Format: cell-based. The conditions noted are these: ATCC12022, Shigella flexneri ATCC 12022, 35°C, 18 hours, read-out: MIC. On the procedure: According to the relevant operating procedures of the Clinical Laboratory Standards Institute (CLSI) in the United States, an antimicrobial susceptibility testing was conducted using the agar dilution method. A 1920 µg/mL stock solution was serially diluted twofold with sterile water to obtain dilutions of 960, 480, 240, 120, 60, 30, 15, 7.5, 3.75, 1.88, 0.94, 0.47 µg/mL, and 1 mL of the dilution was taken respectively from the dilutions with different concentrations and added to a Petri dish, to which 14 mL of melted MH agar medium was added and mixed thoroughly, and the final concentration of the drug in the petri dish is 128, 64, 32, 16, 8, 4, 2, 1, 0.5, 0.25, 0.12, 0.06, and 0.03 µ g/mL, respectively. The agar was allowed to solidify and set aside for later use.
(§1) The test bacteria were propagated in broth and adjusted to a turbidity of 0.5 McFarland (approximately 1-2 × 10^8 CFU/mL) using a turbidimeter before inoculation. The 0.5 McFarland bacterial solution was then diluted 10-fold in broth (approximately 1-2 × 10^7 CFU/mL). A multipoint inoculator was used to inoculate the above bacterial solution onto a series of plates containing different concentrations of drugs (with an inoculation amount of approximately 10^4 CFU per inoculation site). After incubation at a constant temperature of 35°C for 18 hours, results were observed. The minimum concentration of drugs contained in sterile growth plates was determined as the Minimal Inhibitory Concentration (MIC).
In general terms: In agar dilution, organisms are placed on agar that contains the substance at set levels.
Regarding `C[C@H]1[C@H](NC(=O)/C(=N\OC(C)(C)C(=O)O)c2csc(N)n2)C(=O)N1S(=O)(=O)O` [Aztreonam], the minimum inhibitory concentration (MIC) (in general, the smallest concentration in the dilution series that meets the test's criterion for growth inhibition) was determined as 0.06 µg/mL (≈ 0.138 µM).
On to `CO/N=C(\C(=O)N[C@@H]1C(=O)N2C(C(=O)[O-])=C(C[N+]3(C)CCCC3)CS[C@H]12)c1csc(N)n1` [Cefepime], for which the minimum inhibitory concentration (MIC) was not above 0.03 µg/mL.

The test system of another assay is Klebsiella pneumoniae. Described as above. It counts as cell-based. As to conditions: Klebsiella pneumoniae, 18 h, Klebsiella pneumoniae 09-20 (mcr-1); agar dilution, 35°C, 18 hours; read-out: MIC. On the procedure: (§2) According to the relevant operating procedures of the Clinical Laboratory Standards Institute (CLSI) in the United States, an antimicrobial susceptibility testing was conducted using the agar dilution method. […]. The agar was allowed to solidify and set aside for later use.
as §1
Consider `C[C@H]1[C@H](NC(=O)/C(=N\OC(C)(C)C(=O)O)c2csc(N)n2)C(=O)N1S(=O)(=O)O` [Aztreonam], for which the MIC was 0.25 µg/mL (≈ 0.574 µM).
On the same count and under the same terms, next, `CO/N=C(\C(=O)N[C@@H]1C(=O)N2C(C(=O)[O-])=C(C[N+]3(C)CCCC3)CS[C@H]12)c1csc(N)n1` [Cefepime]: 1 µg/mL (≈ 2.08 µM).

Staying with this assay, now noted: Klebsiella pneumoniae, 18 h, Klebsiella pneumoniae 17-R27 (CRE); agar dilution, 35°C, 18 hours; read-out: MIC.
On to `C[C@H]1[C@H](NC(=O)/C(=N\OC(C)(C)C(=O)O)c2csc(N)n2)C(=O)N1S(=O)(=O)O` [Aztreonam], for which the minimal inhibitory concentration (MIC) was determined as 0.25 µg/mL (≈ 0.574 µM).
Take `CO/N=C(\C(=O)N[C@@H]1C(=O)N2C(C(=O)[O-])=C(C[N+]3(C)CCCC3)CS[C@H]12)c1csc(N)n1` [Cefepime]: the MIC was found to be 0.5 µg/mL (≈ 1.04 µM).

The assay is the same for the next values; noted with them: Klebsiella pneumoniae, 18 h, Klebsiella pneumoniae 18-8 (ESBLs-producing); agar dilution, 35°C, 18 hours; read-out: MIC.
Take `C[C@H]1[C@H](NC(=O)/C(=N\OC(C)(C)C(=O)O)c2csc(N)n2)C(=O)N1S(=O)(=O)O` [Aztreonam]: the MIC worked out at 1 µg/mL (≈ 2.3 µM).
For the compound `CO/N=C(\C(=O)N[C@@H]1C(=O)N2C(C(=O)[O-])=C(C[N+]3(C)CCCC3)CS[C@H]12)c1csc(N)n1` [Cefepime], the MIC is 1 µg/mL (≈ 2.08 µM).

Still in this assay, the particulars now being: Klebsiella pneumoniae, ATCC700603, 18 h, Klebsiella pneumoniae ATCC 700603 (ESBLs-producing); agar dilution, 35°C, 18 hours; read-out: MIC.
In the case of `C[C@H]1[C@H](NC(=O)/C(=N\OC(C)(C)C(=O)O)c2csc(N)n2)C(=O)N1S(=O)(=O)O` [Aztreonam], the MIC was determined as 16 µg/mL (≈ 36.7 µM).
`CO/N=C(\C(=O)N[C@@H]1C(=O)N2C(C(=O)[O-])=C(C[N+]3(C)CCCC3)CS[C@H]12)c1csc(N)n1` [Cefepime]: the minimal inhibitory concentration (MIC) was 1 µg/mL (≈ 2.08 µM).

Still in this assay, the particulars now being: Klebsiella pneumoniae, ATCCBAA2146, 18 h, Klebsiella pneumoniae ATCC BAA-2146 (CRE, NDM-1-producing); agar dilution, 35°C, 18 hours.
Turning to `C[C@H]1[C@H](NC(=O)/C(=N\OC(C)(C)C(=O)O)c2csc(N)n2)C(=O)N1S(=O)(=O)O` [Aztreonam], the MIC was more than 128 µg/mL.
In turn, `CO/N=C(\C(=O)N[C@@H]1C(=O)N2C(C(=O)[O-])=C(C[N+]3(C)CCCC3)CS[C@H]12)c1csc(N)n1` [Cefepime] gave an MIC of 128 µg/mL (≈ 266 µM).

The next assay relates to Enterobacter aerogenes. The assay is described as above. Format: cell-based. The conditions noted are these: Klebsiella aerogenes, ATCC13048; Enterobacter aerogenes ATCC 13048; agar dilution, 35°C, 18 hours; read-out: MIC. On the procedure:
as §2, §1
In the case of `C[C@H]1[C@H](NC(=O)/C(=N\OC(C)(C)C(=O)O)c2csc(N)n2)C(=O)N1S(=O)(=O)O` [Aztreonam], the MIC was 0.12 µg/mL (≈ 0.276 µM).
In the case of `CO/N=C(\C(=O)N[C@@H]1C(=O)N2C(C(=O)[O-])=C(C[N+]3(C)CCCC3)CS[C@H]12)c1csc(N)n1` [Cefepime], the MIC came out at 0.06 µg/mL (≈ 0.125 µM).

Another assay deals with Proteus vulgaris. The assay is described as above. It counts as cell-based. As to conditions: ATCC29905; Proteus vulgaris ATCC 29905; agar dilution, 35°C, 18 hours; read-out: MIC. On the procedure: as §2, §1
With `C[C@H]1[C@H](NC(=O)/C(=N\OC(C)(C)C(=O)O)c2csc(N)n2)C(=O)N1S(=O)(=O)O` [Aztreonam], the MIC is not above 0.03 µg/mL.
Regarding `CO/N=C(\C(=O)N[C@@H]1C(=O)N2C(C(=O)[O-])=C(C[N+]3(C)CCCC3)CS[C@H]12)c1csc(N)n1` [Cefepime], the MIC is not above 0.03 µg/mL.

The test system of another assay is Escherichia coli. The assay is described as above. It counts as cell-based. As to conditions: Escherichia coli, 18 h, Escherichia coli 13-43 (mcr-1); agar dilution, 35°C, 18 hours; read-out: MIC. How it is done: as §2, §1
On to `C[C@H]1[C@H](NC(=O)/C(=N\OC(C)(C)C(=O)O)c2csc(N)n2)C(=O)N1S(=O)(=O)O` [Aztreonam], for which the MIC came to 16 µg/mL (≈ 36.7 µM).
For `CO/N=C(\C(=O)N[C@@H]1C(=O)N2C(C(=O)[O-])=C(C[N+]3(C)CCCC3)CS[C@H]12)c1csc(N)n1` [Cefepime], the MIC was found to be 2 µg/mL (≈ 4.16 µM).

The assay is the same for the next values; noted with them: Escherichia coli, 18 h, Escherichia coli 17-R28 (CRE, NDM-1-producing); agar dilution, 35°C.
Consider `CO/N=C(\C(=O)N[C@@H]1C(=O)N2C(C(=O)[O-])=C(C[N+]3(C)CCCC3)CS[C@H]12)c1csc(N)n1` [Cefepime], for which the MIC is more than 128 µg/mL.

The same assay, now with this note: Escherichia coli, 18 h, Escherichia coli 17-R28 (CRE, NDM-1-producing); agar dilution, 35°C, 18 hours; read-out: MIC.
Regarding `C[C@H]1[C@H](NC(=O)/C(=N\OC(C)(C)C(=O)O)c2csc(N)n2)C(=O)N1S(=O)(=O)O` [Aztreonam], the minimal inhibitory concentration (MIC) came to 8 µg/mL (≈ 18.4 µM).

The assay is the same for the next values; noted with them: Escherichia coli, ATCC2469, 18 h, Escherichia coli ATCC 2469 (CRE, NDM-1-producing); agar dilution, 35°C, 18 hours; read-out: MIC.
Consider `C[C@H]1[C@H](NC(=O)/C(=N\OC(C)(C)C(=O)O)c2csc(N)n2)C(=O)N1S(=O)(=O)O` [Aztreonam], for which the MIC was determined as 4 µg/mL (≈ 9.19 µM).
For the compound `CO/N=C(\C(=O)N[C@@H]1C(=O)N2C(C(=O)[O-])=C(C[N+]3(C)CCCC3)CS[C@H]12)c1csc(N)n1` [Cefepime], the minimum inhibitory concentration (MIC) stood at 64 µg/mL (≈ 133 µM).

The assay is the same for the next values; noted with them: Escherichia coli, ATCC35218, 18 h, Escherichia coli ATCC 35218 (ESBLs-producing); agar dilution, 35°C, 18 hours; read-out: MIC.
As for `C[C@H]1[C@H](NC(=O)/C(=N\OC(C)(C)C(=O)O)c2csc(N)n2)C(=O)N1S(=O)(=O)O` [Aztreonam], the MIC is not above 0.03 µg/mL.
As to `CO/N=C(\C(=O)N[C@@H]1C(=O)N2C(C(=O)[O-])=C(C[N+]3(C)CCCC3)CS[C@H]12)c1csc(N)n1` [Cefepime], the minimum inhibitory concentration (MIC) was not above 0.03 µg/mL.

For the next assay, the system named is Pantoea agglomerans. The assay is described as above. It counts as cell-based. The conditions noted are these: ATCC27993; Pantoea agglomerans ATCC 27993; agar dilution, 35°C, 18 hours; read-out: MIC. On the procedure: as §2, §1
For the compound `C[C@H]1[C@H](NC(=O)/C(=N\OC(C)(C)C(=O)O)c2csc(N)n2)C(=O)N1S(=O)(=O)O` [Aztreonam], the MIC is not above 0.03 µg/mL.
For `CO/N=C(\C(=O)N[C@@H]1C(=O)N2C(C(=O)[O-])=C(C[N+]3(C)CCCC3)CS[C@H]12)c1csc(N)n1` [Cefepime], the MIC came to 0.06 µg/mL (≈ 0.125 µM).

A further assay has as its system Proteus mirabilis. The assay is described as above. As to conditions: ATCC49565; Proteus mirabilis ATCC 49565; agar dilution, 35°C, 18 hours; read-out: MIC. It counts as cell-based. How it is done:
as §2, §1
In the case of `C[C@H]1[C@H](NC(=O)/C(=N\OC(C)(C)C(=O)O)c2csc(N)n2)C(=O)N1S(=O)(=O)O` [Aztreonam], the MIC was not above 0.03 µg/mL.
Still for that read-out and setting: next, `CO/N=C(\C(=O)N[C@@H]1C(=O)N2C(C(=O)[O-])=C(C[N+]3(C)CCCC3)CS[C@H]12)c1csc(N)n1` [Cefepime]: 0.06 µg/mL (≈ 0.125 µM).

In another assay the test system is Citrobacter freundii. The description is as above. It counts as cell-based. As to conditions: ATCC43864; Citrobacter freundii ATCC 43864; agar dilution, 35°C, 18 hours; read-out: MIC. On the procedure: as §2, §1
In the case of `C[C@H]1[C@H](NC(=O)/C(=N\OC(C)(C)C(=O)O)c2csc(N)n2)C(=O)N1S(=O)(=O)O` [Aztreonam], the minimal inhibitory concentration (MIC) worked out at 0.12 µg/mL (≈ 0.276 µM).
On to `CO/N=C(\C(=O)N[C@@H]1C(=O)N2C(C(=O)[O-])=C(C[N+]3(C)CCCC3)CS[C@H]12)c1csc(N)n1` [Cefepime], for which the MIC was not above 0.03 µg/mL.

Another assay has as its system Serratia marcescens. The description is as above. It counts as cell-based. As to conditions: ATCC21074; Serratia marcescens ATCC 21074; agar dilution, 35°C, 18 hours; read-out: MIC. On the procedure:
as §2, §1
As to `C[C@H]1[C@H](NC(=O)/C(=N\OC(C)(C)C(=O)O)c2csc(N)n2)C(=O)N1S(=O)(=O)O` [Aztreonam], the MIC was found to be 0.12 µg/mL (≈ 0.276 µM).
Consider `CO/N=C(\C(=O)N[C@@H]1C(=O)N2C(C(=O)[O-])=C(C[N+]3(C)CCCC3)CS[C@H]12)c1csc(N)n1` [Cefepime], for which the MIC was 0.06 µg/mL (≈ 0.125 µM).

The next assay relates to Pseudomonas aeruginosa. The description is as above. It counts as cell-based. The conditions noted are these: Pseudomonas aeruginosa PAO1; agar dilution, 35°C, 18 hours; read-out: MIC. On the procedure:
as §2, §1
On to `C[C@H]1[C@H](NC(=O)/C(=N\OC(C)(C)C(=O)O)c2csc(N)n2)C(=O)N1S(=O)(=O)O` [Aztreonam], for which the minimum inhibitory concentration (MIC) is 4 µg/mL (≈ 9.19 µM).
Turning to `CO/N=C(\C(=O)N[C@@H]1C(=O)N2C(C(=O)[O-])=C(C[N+]3(C)CCCC3)CS[C@H]12)c1csc(N)n1` [Cefepime], the minimum inhibitory concentration (MIC) was 2 µg/mL (≈ 4.16 µM).
